According to patent US20210346354A1, “MACROPINOCYTOSIS IN CANCER” (Memorial Sloan-Kettering Cancer Center, priority 2015, published 2021):

Legend:
[1] = tested on: K-Ras mutant tumor cell lines (KRPC, MiaPaCa-2, A549); experiment: Proliferation of K-Ras mutant tumor cell lines; assay type: cell-based; settings: 250 nM torin 1
Method: Dashed lines indicate starting cell numbers. P-values were calculated using a two-tailed unpaired t-test. ***p<0.001. […] Under experimental conditions, cells have abundant glucose supplied in their medium and are thus unlikely to utilize leucine for lipid as opposed to protein synthesis during anabolic growth. Consistent with this, when cells were labeled with ^14C-leucine, the ratio of protein to lipid incorporation of label was: control cells 364±69, torin-1 treated cells 203±27, raptor-deficient cells 87±3. Data are represented as mean±STDEV (n=3).
Cell culture experiments were performed at 37° C. and 5% CO2 in DMEM/F12 with 10% dialyzed FBS (molecular weight cut-off 10,000; Gemini Biosystems), 100 U/mL penicillin, 100 μg/mL streptomycin, 5 mM glucose and 2 mM glutamine. For proliferation assays, MEFs were plated in complete medium, 5 h later briefly rinsed and then cultured in starvation medium as indicated. For EAA titration experiments, EAAs were supplemented at indicated percentages of 1×MEM amino acid solution (M5550, Sigma). Cancer cell lines were cultured in complete medium for 1 day prior to starvation. Numbers of adherent cells, which are >95% viable as assessed by Trypan Blue exclusion were determined using a Multisizer 4 Coulter Counter (Beckman). […]

[2] = tested on: Ulk1/2 wild type and DKO MEFs expressing K-Ras^G12V; experiment: DQ-BSA proteolysis in Ulk1/2 wild type and DKO MEFs expressing K-Ras^G12V; assay type: cell-based, mouse; settings: 250 nM torin 1; Ulk1/2 wild type versus DKO
Method: K-Ras^G12D MEFs were pre-treated for 1 h with 250 nM torin 1 and then incubated with fluorescently labeled dextran or albumin. Intracellular dextran or albumin was quantified after 30 min uptake. Data are represented as mean±STDEV (n=6 fields of view with >10 cells each). P-values were calculated using a two-tailed unpaired t-test. n.s. not significant. […] Uptake of fluorescently labeled dextran was quantified after 30 min uptake. Data are represented as mean±STDEV (n=8 fields of view with >10 cells each). P-values were calculated using a two-tailed unpaired t-test. n.s. not significant. […] K-Ras^G12D MEFs were pre-treated for 1 h with 250 nM torin 1, then incubated with fluorescently labeled dextran for indicated periods of time. Data are represented as mean±STDEV (n=8 fields of view with >10 cells each). […] Mean fluorescence intensity per cell was determined after 6 h of DQ-BSA uptake. Data are represented as mean±STDEV (n=7 fields of view with >15 cells each). P-values were calculated using a two-tailed unpaired t-test. ***p<0.001, n.s. not significant. […] DQ-BSA fluorescence intensity is represented as mean±STDEV (n=7 fields of view with >20 cells each). P-values were calculated using a two-tailed unpaired t-test. ***p<0.001. […] DQ-BSA fluorescence intensity is represented as mean±STDEV (n=6 fields of view with >30 cells each). P-values were calculated using a two-tailed unpaired t-test. […]

[3] = tested on: mTORC1; experiment: mTORC1 re-activation after 1 h EAA starvation, Western blotting against phosphorylated S6K1; assay type: cell-based, mouse; settings: wild type and K-Ras^G12D MEFs; EAA-free medium with 1-3% albumin; 500 nM torin 1 added at onset of EAA starvation
Method: Cells were rinsed with ice-cold PBS and detached from culture plates by incubation with ice-cold trypsin (0.05%). Trypsin was inactivated with ice-cold serum, cells pelleted and rinsed with ice cold PBS. Cells were lysed in ice-cold lysis buffer [50 mM HEPES, pH 7.4, 40 mM […], 2 mM EDTA, 1 mM Na Orthovandanate, 50 mM NaF, 10 mM Na Pyrophosphate, 10 mM Na Glycerophosphate, 1% Triton X-100, 1×Halt protease and phosphatase inhibitor cocktails (Thermo Scientific)] for 15 min, and soluble lysate fractions isolated by centrifugation at 16,000 g for 10 min. Protein concentrations were determined with the Pierce BCA Protein Assay (Thermo Scientific) and equal amounts of proteins analyzed by SDS gel electrophoresis and Western blotting following standard protocols.
Cell culture experiments were performed at 37° C. and 5% CO2 in DMEM/F12 with 10% dialyzed FBS (molecular weight cut-off 10,000; Gemini Biosystems), 100 U/mL penicillin, 100 μg/mL streptomycin, 5 mM glucose and 2 mM glutamine. For proliferation assays, MEFs were plated in complete medium, 5 h later briefly rinsed and then cultured in starvation medium as indicated. For EAA titration experiments, EAAs were supplemented at indicated percentages of 1×MEM amino acid solution (M5550, Sigma). Cancer cell lines were cultured in complete medium for 1 day prior to starvation. Numbers of adherent cells, which are >95% viable as assessed by Trypan Blue exclusion were determined using a Multisizer 4 Coulter Counter (Beckman). For mTOR activation and localization experiments, cells were rinsed and then incubated in EAA starvation medium (DMEM/F12 lacking all amino acids except glutamine) for 1 h, and subsequently placed in medium supplemented with EAAs (1×MEM amino acid solution), albumin (3%, if not stated otherwise) or fresh EAA-free starvation medium for indicated periods of time.
Cells can sense EAAs through the mTORC1 pathway, which integrates amino acid levels with inputs from growth factor signaling to promote cell growth (Ma and Blenis, 2009; Shimobayashi and Hall, 2014). When cells are placed in EAA-free medium, the ability of mTORC1 to phosphorylate downstream targets is repressed. To test if catabolism of extracellularly provided proteins could restore mTORC1 activity in the absence of EAAs, mTORC1 was inactivated by subjecting MEFs to 1 h EAA starvation. Fresh medium containing EAAs or different concentrations of albumin was then added and mTORC1 re-activation assessed by Western blotting against phosphorylated S6K1.

CCC(=O)N1CCN(c2ccc(-n3c(=O)ccc4cnc5ccc(-c6cnc7ccccc7c6)cc5c43)cc2C(F)(F)F)CC1 [torin 1]
cell proliferation ([1]; leucine-containing medium +3% albumin, day 3): strongly decreased their proliferation | cell proliferation ([1]; leucine-free medium +3% albumin, day 4): induced several carcinoma cell lines harboring activating Ras mutations to proliferate | DQ-BSA proteolysis in response to torin 1 [2]: comparable increase in DQ-BSA proteolysis | albumin-induced S6K1 phosphorylation [3]: completely suppressed
